Assay results taken from ChEMBL document CHEMBL5724558, “Image-based profiling of drug vulnerabilities in CRC organoids” (2024).
Where “and” joins values, the source holds several entries; their conditions need not be identical. Identical values can stand only once.

Experiments:
Type in all cases: functional, Homo sapiens
Parameters in all cases: dose or concentration left out as unconfirmed
Colon cancer organoid [1] = test: (§1) Image-based profiling of donated chemical probes and chemogenomic kinase set in O21 CRC organoid. Image analysis is performed on the sum area metric, and the data were normalized to the DMSO control. After imaging the organoid viability is measured using the OneGloEX Luciferase Assay System. The normalized viability data and sum area are reported.
Colon cancer organoid [2] = test: as §1, with “O09” for “O21”
Colon cancer organoid [3] = test: as §1, with “O06” for “O21”

Structure (SMILES)	Cell Viability (Colon cancer organoid [1]; Replication number 1)	Cell Viability (Colon cancer organoid [1]; Replication number 2)	Cell Viability (Colon cancer organoid [2]; Replication number 1)	Cell Viability (Colon cancer organoid [2]; Replication number 2)	Cell Viability (Colon cancer organoid [3]; Replication number 1)	Cell Viability (Colon cancer organoid [3]; Replication number 2)
CC(C)(O)[C@H](F)CN1Cc2cc(NC(=O)c3cnn4cccnc34)c(N3CCOCC3)cc2C1=O	101.018% and 118.952%	110.562% and 109.619%	71.2325% and 98.662%	94.649% and 96.9469%	109.705% and 119.757%	130.929% and 135.992%
Cc1ccc(-c2cnc([C@@]3(O)CC[C@H](C(=O)O)C(C)(C)C3)s2)cc1Nc1cccc(C(F)(F)F)n1 [MRL-SYKi-NC]	112.056% and 96.0543%	96.6815% and 86.7347%	109.363% and 85.7712%	161.475% and 115.078%	90.9085% and 96.9555%	94.2486% and 84.0983%
CCCS(=O)(=O)c1nc(NC2CC2)cc(-c2ccc3c(ccn3C3CC(C)(C)NC(C)(C)C3)c2)n1	108.157% and 124.037%	90.7114% and 110.084%	90.8161% and 100.386%	72.9195% and 100.634%	33.8005% and 71.7584%	41.5782% and 52.8147%
O=C(Nc1cccnn1)N1CCC(=Cc2cccc(Oc3ccc(C(F)(F)F)cn3)c2)CC1	101.123% and 116.429%	106.817% and 109.694%	126.629% and 132.36%	65.2365% and 71.2669%	84.0807% and 127.869%	104.052% and 107.077%
CC[C@@H]1CN(C(=O)NCC(F)(F)F)C[C@@H]1c1cnc2cnc3[nH]ccc3n12 [UPADACITINIB]	100.634% and 104.808%	99.9708% and 92.6952%	147.971% and 117.189%	96.4317% and 92.8632%	103.03% and 85.909%	77.8559% and 94.8072%
Cc1cc(NC(=O)c2cccc(S(F)(F)(F)(F)F)c2)cc(-n2ccn3nc(-c4cccnc4)cc23)c1 [BAY-309]	93.9876% and 96.6365%	97.5385% and 109.184%	161.366% and 84.5766%	126.224% and 101.643%	100.937% and 113.583%	92.9473% and 106.13%
Cl.Cl.NC1(c2ccc(-c3nc4ccn5c(=O)[nH]nc5c4cc3-c3ccccc3)cc2)CCC1	81.7246% and 91.8083%	79.6922% and 92.9418%	47.4878% and 37.8628%	66.6317% and 37.3678%	82.4513% and 94.6892%	74.7027% and 107.425%
C[C@H](c1ccnc(Nc2nc3ccc(-c4cc(N(C)C)ncn4)cc3[nH]2)c1)N1CCN(C(=O)CC(F)(F)F)CC1 [BAY-985]	79.4083% and 115.847%	85.0487% and 108.163%	71.2214% and 105.601%	101.014% and 89.9598%	90.8191% and 114.52%	122.693% and 118.685%
Clc1cc2c(NC3CCCC3)nnc(-c3ccncc3)c2cc1Cl	113.128% and 118.158%	77.3442% and 110.621%	139.675% and 109.428%	148.163% and 121.159%	62.2011% and 99.302%	123.043% and 92.9634%
CNCCN1CCC(OCc2ccccc2)CC1	118.771% and 101.11%	99.3774% and 100.418%	67.0161% and 91.8083%	91.8334% and 102.344%	119.99% and 102.443%	115.41% and 100.611%
Cc1c(N2CCNCC2)nc2ccc(Br)cc2c1C(=O)NC[C@H](CCC(=O)O)c1ccccc1Cl [BAY-403]	86.0908% and 103.128%	96.6508% and 95.8532%	84.5203% and 109.166%	120.857% and 102.102%	84.3877% and 124.372%	102.985% and 123.739%
Cn1nc(C(F)(F)F)cc1-c1cnc(N2CCc3cc(S(=O)(=O)Nc4c(F)cc(Cl)cc4F)cc(N4CCCC4=O)c32)nc1 [TP-020]	100.4% and 89.0686%	74.5209% and 80.6122%	176.236% and 116.591%	145.95% and 107.484%	97.5497% and 105.152%	112.528% and 137.4%
CC(=O)Nc1ncc(CN2CCC[C@H](Cc3cc(C)nc(C)c3)C2)s1 [JNJ-65355394]	79.2381% and 103.709%	88.6271% and 113.344%	144.44% and 104.679%	146.748% and 114.826%	89.0088% and 111.578%	103.026% and 113.793%
C[C@@]1(Cc2ccc(C#N)cc2)C(=O)N(c2cc(Cl)cc(Cl)c2)c2ncc(C(=O)NC3(c4nc(C5CCC5)no4)CC3)n21 [BI 9446]	115.902% and 114.683%	106.853% and 94.898%	73.271% and 85.2933%	87.2778% and 108.945%	120.452% and 119.438%	141.276% and 120.817%
COc1cc(C(=O)O)ncc1C#Cc1ccccc1NS(=O)(=O)c1cccc2c(N(C)C)ccnc12 [MSC-0516]	88.3697% and 90.0327%	92.8274% and 92.794%	106.133% and 95.2857%	130.736% and 112.411%	100.098% and 102.024%	96.9075% and 85.7761%
O=C(NC[C@@H]1[C@H]2CN(C(=O)OCc3cc(C(F)(F)F)cc(C(F)(F)F)c3)C[C@@H]12)c1ccc2[nH]nnc2c1 [BI 2545]	93.6308% and 96.6365%	84.4904% and 89.2857%	189.417% and 138.094%	118.998% and 92.5885%	131.534% and 122.248%	107.128% and 130.293%
CC(=O)c1cc(-c2ccccc2OCC2CC2)c2ncccn12	119.426% and 104.637%	103.612% and 93.9737%	135.678% and 108.037%	170.672% and 99.2081%	193.281% and 129.503%	159.696% and 98.6989%
Cc1ncsc1-c1ccc(CNC(=O)[C@@H]2C[C@@H](O)CN2C(=O)[C@@H](NC(=O)CCCCNC(=O)c2ccc(-c3ccc(N4CCN(C)CC4)c(NC(=O)c4c[nH]c(=O)cc4C(F)(F)F)c3)cc2)C(C)(C)C)cc1	88.0354% and 100.906%	93.0619% and 103.634%	189.737% and 102.727%	128.896% and 122.558%	127.591% and 97.9274%	138.236% and 103.65%
CNCCN1CCC(c2cc(CN(C)C(=O)c3cccc(Oc4ccccc4)c3)ccn2)CC1	118.858% and 106.989%	108.266% and 112.768%	65.766% and 84.3895%	110.837% and 98.923%	160.666% and 144%	179.321% and 118.056%
O=C1NC(c2ccccn2)Sc2ccccc21 (stereo unspecified) [BTZO-4]	96.9189% and 94.3079%	102.382% and 84.6939%	89.6903% and 76.6923%	179.626% and 125.593%	80.1051% and 90.1639%	101.963% and 109.92%
CC(C)Oc1ccc(-c2c[nH]cc2CN(C)CCN)cc1	91.7863% and 65.8393%	93.2232% and 70.8831%	64.4727% and 62.1329%	85.7978% and 86.9496%	21.9267% and 37.2081%	18.5621% and 35.8471%
CC(C)S(=O)(=O)c1ccc2nccc(Nc3ccc4scnc4c3)c2c1	106.102% and 111.498%	112.549% and 132.422%	127.216% and 102.228%	64.4509% and 80.9853%	90.1117% and 127.973%	127.825% and 117.429%
CN(C)C(=O)/C(C#N)=C/c1ccc(-c2nc3cnc4c(ccn4C)c3n2C2CCCCC2)o1	100.887% and 101.443%	86.9771% and 102.576%	117.89% and 123.735%	132.247% and 113.588%	94.8079% and 114.901%	118.022% and 96.0735%
Cn1cc(-c2ccc3occ(-c4cccc(-c5ccncc5)c4)c3n2)cn1	96.3699% and 105.976%	129.888% and 115.611%	82.6672% and 85.8718%	87.0318% and 75.2306%	105.822% and 114.901%	68.0406% and 107.425%
Cn1c(C2(NC(=O)c3ccc4c(C5CCCC5)c(-c5ncc(Br)cn5)n(C)c4c3)CCC2)nc2ccc(/C=C/C(=O)O)cc21 [DELEOBUVIR]	112.195% and 113.344%	113.774% and 112.777%	177.935% and 120.27%	86.2792% and 92.0585%	72.8568% and 101.611%	116.691% and 122.099%
CNC(=O)c1cc(C(=O)N[C@H]2[C@@H]3COC[C@@H]32)cc2c1O[C@H](CF)[C@H]2c1ccccc1 [GSK973]	110.582% and 117.861%	99.9706% and 95.8532%	33.6063% and 74.8406%	64.0142% and 82.8707%	85.8672% and 112.47%	108.347% and 115.089%
